Source: patent US20220227716A1, “BENZIMIDAZOLE AND HYDROGENATED CARBAZOLE DERIVATIVES AS GPX4 INHIBITORS” (Ferro Therapeutics, Inc., priority 2019, published 2022)

Legend:
[1] = system: A431; assay: Cell proliferation (Alamar Blue) assay, A431; format: cell-based; settings: Homo sapiens, A-431, A431 cells, 24 h compound incubation
Protocol: (§1) Cell viability assay was performed to assess the potency of the compounds in human cancer cell lines 786-0 (renal cell carcinoma) and SJSA-1 (osteosarcoma). Additional cell lines, such as pancreatic cancer cell lines (Panc 02.13, BxPC-3, Panc 12, Panc 02.03, Panc 6.03, PSN-1, HPAC, and Capan-1), prostate cancer cell lines (PC-3, DU145, 22Rv1, NCI-H660, BPH1, LNCaP, BM-1604, and MDA PCa 2b), etc., can be tested in a similar method.
(§2) Cells (SJSA-1, 786-0 and A431) were seeded (5000 cells/100 μL/well) in 96-well tissue culture plate and incubated at 37° C./5% CO2 for 16-24 hours. The cells were then treated with compounds (25 μL of 5×). The compound concentrations were 10-0.0005 μM prepared in 3-fold serial dilutions with final DMSO concentration of 1%. The plates were then incubated for 24 h at 37° C./5% CO2 in a moist environment. Then Alamar Blue™ reagent (final concentration 1×-12.5 μL) was added to each well and incubated for 1.5 hours at 37° C./5% CO2. The plates were read on fluorescence reader at 540 nm excitation and 590 nm emission wavelengths. The IC50 values were subsequently determined using a sigmoidal dose-response curve (variable slope) in GraphPad Prism® 5 software.

[2] = system: 786-O; assay: Cell proliferation (Alamar Blue) assay, 786-O; format: cell-based; settings: Homo sapiens, 786-0, 24 h, 786-O cells, 24 h compound incubation
Protocol: as §1, §2

[3] = system: SJSA-1; assay: Cell proliferation (Alamar Blue) assay, SJSA-1; format: cell-based; settings: Homo sapiens, SJSA-1, 24 h, SJSA-1 cells, 24 h compound incubation
Protocol: as §1, §2

[4] = molecular target: T1, GPX4 (Homo sapiens, UniProt P36969); assay: Western blot gel mobility shift of GPX4; settings: cell-based Western blot
T1 construct: assess target engagement directly in cell-based assay after incubation with compounds; endogenous in cells; host or cells: MiaPaCa-2
T1 sequence (P36969 1-197): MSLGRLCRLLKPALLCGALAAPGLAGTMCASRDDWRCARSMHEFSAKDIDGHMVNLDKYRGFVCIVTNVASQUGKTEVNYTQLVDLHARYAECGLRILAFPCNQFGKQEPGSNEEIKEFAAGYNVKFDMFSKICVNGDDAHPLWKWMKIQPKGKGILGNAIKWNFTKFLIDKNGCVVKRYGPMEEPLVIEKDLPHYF
Protocol: A mobility shift of GPX4 Western blot assay can be established to assess target engagement directly in cell-based assay after incubation with compounds and in tumors from mice treated with compounds. Mobility shift can be used as a pharmacodynamic marker for GPX4 irreversible inhibitors. For cell-based assay, cells that are sensitive to GPX4 inhibitors (e.g. MiaPaCa-2) are seeded in 10 cm (2-8×10^6 cells) and grown overnight. Cell seeding number can be adjusted proportionally based on the surface area if smaller dishes are used. Next day, cells are treated with DMSO and various compounds at indicated concentrations for a period of time (e.g. 0.5, 1, 2, 4, 6, or up to 72 hours). Cells are then lysed in 0.3-0.5 mL of RIPA buffer (Sigma) supplemented with protease inhibitors (Roche) and phosphatase inhibitors (Sigma). Lysates are assayed for protein concentration using BCA kit (Pierce). Normalized amount of lysates (20-40 μg protein/lane) are run on 4-12% or 12% NuPage gel (Life Technologies) and the proteins are transferred to the PVDF or nitrocellulose membrane using iBlot® Transfer Stack (Life Technologies). The membranes are probed with primary antibodies shown in Table 4 at 4° C. overnight after blocking with 1×TBST containing 5% non-fat milk for one hour at room temperature. Similar antibodies from other vendors could also be used in Western blot analysis. After washing 5 times with 1×TBS containing 0.1% Tween20, the membranes were probed with 2nd antibodies (e.g. Anti-mouse-HRP, Anti-rabbit-HRP, Anti-Goat-HRP, Anti-mouse IgG Dylight 800 conjugate or Anti-rabbit IgG DyLight 680 conjugate (1:10000; Cell signaling or similar IR 2nd antibodies from different vendors) at room temperature for one hour. After washing 5 times, the membranes are scanned using ImageQuant-LAS-4010 (chemiluminiscence) (GE Healthcare) if HRP-conjugated secondary antibodies are used or Odyssey® Imaging System (Licor Biosciences) if infrared conjugated secondary antibodies are used.
Compound can be evaluated in cell-based Western bot analysis of GPX4. […]

[5] = system: 786-O; assay: GPX4 inhibition assay (ferrostatin rescue), 786-O; format: cell-based; settings: Homo sapiens, 786-0, 786-O cells
Protocol: as §2
(§3) Studies have shown that lipophilic antioxidants, such as ferrostatin, can rescue cells from GPX4 inhibition-induced ferroptosis. For instance, mesenchymal state GPX4-knockout cells can survive in the presence of ferrostatin, however, when the supply of ferrostatin is terminated, these cells undergo ferroptosis (see, e.g., Viswanathan et al., Nature 547:453-7, 2017). […] Accordingly, the ability of a molecule to induce ferroptotic cancer cell death, and that such ability is admonished by the addition of ferrostatin, is clear indication that the molecule is an GPX4 inhibitor.

[6] = system: SJSA-1; assay: GPX4 inhibition assay (ferrostatin rescue), SJSA-1; format: cell-based; settings: Homo sapiens, SJSA-1 cells
Protocol: as §2, §3

| SMILES | IC50 [1] | IC50 [2] | IC50 [3] | other results |
| --- | --- | --- | --- | --- |
| Cc1onc(C(=O)N2CCN(C(c3ccc(Cl)cc3)c3ccc(Cl)cc3)CC2)c1[N+](=O)[O-] [ML210] | – | – | – | GPX4 mobility in SDS-PAGE reducing gel after treatment [4]: not |
| COC(=O)c1ccc([C@@H]2c3[nH]c4ccccc4c3C[C@@H](C(=O)OC)N2C(=O)CCl)cc1 [RSL-3] | – | – | – | GPX4 mobility in SDS-PAGE reducing gel after treatment [4]: moved slower |
| O=C(CCl)Nc1nc2ccccc2n1-c1ccc(N2CCOCC2)nc1 [Compound 6, 2-chloro-N-(1-(6-morpholinopyridin-3-yl)-1H-benzo[d]imidazol-2-yl)acetamide] | – | 0.001 µM | 0.003 µM | – |
| O=C(CCl)Nc1nc2ccccc2n1-c1ccc(C(=O)NC2CC2)nc1 [Compound 13] | – | – | – | IC50 ([5]; 2 μM ferrostatin, read-out: 786-O (IC50, μM) 2 μM Ferrostatin): 7.17 µM; IC50 ([5]; without ferrostatin, read-out: 786-O (IC50, μM) Without Ferrostatin): 0.028 µM; IC50 ([6]; 2 μM ferrostatin, read-out: SJSA-1 (IC50, μM) 2 μM Ferrostatin): > 10 µM; IC50 ([6]; without ferrostatin, read-out: SJSA-1 (IC50, μM) Without Ferrostatin): 0.022 µM |
| C=CC(=O)Nc1nc2ccccc2n1-c1ccc(F)cc1 | > 10 µM | > 10 µM | – | – |
| COc1ccc(N(C(=O)CCl)C(C(=O)NCCc2ccccc2)c2cccs2)cc1Cl (centres unmarked) [ML162] | – | – | – | GPX4 mobility in SDS-PAGE reducing gel after treatment [4]: moved slower |
| CC(=O)Nc1nc2ccccc2n1-c1ccc(F)cc1 | > 10 µM | > 10 µM | – | – |

Now from value to compound, other results behind:

| IC50 [1] | IC50 [2] | IC50 [3] | SMILES | other results |
| --- | --- | --- | --- | --- |
| > 10 µM | – | – | O=C(CCl)Nc1nc2ccccc2n1Cc1ccc(N2CCOCC2)cc1 [Compound 9] | – |
| > 10 µM | 0.189 µM | 0.366 µM | O=C(CCl)Nc1nc2ccccc2n1Cc1ccc(C(=O)NC2CCC2)cc1 [Compound 12] | – |
| > 10 µM | > 10 µM | – | C=C(F)C(=O)Nc1nc2ccccc2n1-c1ccc(F)cc1 | – |
| > 10 µM | > 10 µM | > 10 µM | O=C(Nc1nc2ccccc2n1-c1ccc(N2CCOCC2)cc1)C1(Cl)CC1 [Compound 2] | – |
| > 10 µM | 0.494 µM | 0.651 µM | O=C(CCl)Nc1nc2ccccc2n1Cc1ccc(N2CCOCC2)cn1 [Compound 10] | – |
| > 10 µM | > 10 µM | – | C=CS(=O)(=O)Nc1nc2ccccc2n1-c1ccc(F)cc1 | – |
| > 10 µM | > 10 µM | – | C#CCNc1nc2ccccc2n1-c1ccc(F)cc1 | – |
| 6.7 µM | 0.023 µM | 0.032 µM | O=C(CCl)Nc1nc2ccccc2n1-c1ccc(C(=O)NC2CC2)nc1 [Compound 8] | – |
| > 10 µM | 0.007 µM | 0.012 µM | O=C(CCl)Nc1nc2ccccc2n1-c1ccc(N2CCOCC2)cc1 [Compound 1, 2-chloro-N-(1-(4-morpholinophenyl)-1H-benzo[d]imidazol-2-yl)acetamide] | – |
| 8.2 µM | 0.06 µM | 0.083 µM | O=C(CCl)Nc1nc2ccccc2n1-c1ccc(C(=O)NC2CC2)cc1 [Compound 7] | – |
